Paper PMC11568388 (Molecular Biology and Evolution, 2024)

System: Aplysia californica
Type: in vivo

| Structure (SMILES) | Behavior vs saline-injected control (in vivo) | Behavioral phenotype (in vivo) | Onset of behavioral phenotype after injection (in vivo) [min] | Locomotion (n = 3) |
| --- | --- | --- | --- | --- |
| NCC(O)c1ccc(O)cc1 (stereo not shown) [octopamine] | did not alter A. californica behavior significantly different from control |  |  |  |
| NCCc1c[nH]c2ccc(O)cc12 [serotonin] |  | notable inability of the animal's foot to completely stick to the tank wall, resulting in impaired locomotion | ≤ 1 | immediate hyperlocomotive phenotype |
